# Measured values reported in paper PMC6369734, “Spy vs. spy: selecting the best reporter for ^19F NMR competition experiments” (Chemical Communications (Cambridge, England), 2019).
# Like-named read-outs stand apart in the source and are kept apart here.
# Tests used:
# [1] = target: T1, VHL (VBC complex: pVHL54-213, eloB1-104, eloC17-112) (Homo sapiens, UniProt P40337); test: Surface plasmon resonance (SPR) steady-state binding to immobilised biotinylated AviVBC
# T1 construct: equimolar complex of pVHL54-213, eloB1-104 and; made in house; host or cells: E. coli
# Protocol: The KD of each compound to VHL was determined by surface plasmon resonance (SPR) experiments.
# 3. Protein expression, purification and biotinylation
# The VHL E3 ligase is a multi-protein complex composed of five proteins: VHL protein (pVHL), elongin B (eloB), elongin C (eloC), Cullin-2 (Cul2) and Ring-box protein 1 (Rbx1).[3] Since the compounds developed in this work bind solely to the VHL protein, the VBC complex (equimolar complex of pVHL54-213, eloB1-104 and eloC17-112) was used in all experiments, as it can be readily expressed in E. coli with high yields,[4] while the full E3 ligase would require baculovirus-insect cells expression system.[5] The expression and purification of VBC was performed as described previously by our group[2] and employed directly in all NMR experiments.
# For the surface plasmon resonance (SPR) experiments, a VBC complex containing an AviTagTM in the N-terminus of eloB (AviVBC) was purified using the same procedure described for VBC. The modified eloB/eloC expression plasmid was previously developed in-house by Dr. Michael Roy and kindly shared. The AviVBC complex was site-specifically biotinylated in the AviTag using the GST-BirA method previously described by […]
# 4. Surface plasmon resonance experiments
# The SPR experiments were performed with a Biacore T200 instrument (GE Healthcare). All measurements were performed at 20 °C with buffer containing 10 mM HEPES, pH 7.5, 150 mM NaCl, 1 mM TCEP, 0.005% (v/v) Tween® 20 and 2% (v/v) dimethyl sulfoxide (DMSO). Biotinylated AviVBC (~0.5 μM) was immobilised at 22 °C onto a Series S sensor chip SA (GE Heathcare) to levels of approximately 3500-4000 response units […]
# Solutions of each spy molecule were prepared in buffer at concentrations based on previous structure-activity relationship studies of VHL ligands (K D expected in the nanomolar range for structures like spy molecules 16 and 22, or in the milimolar range for spy molecules similar to 1 and 9). From this first screen, the binding affinities were roughly estimated using the Biacore T200 evaluation software (GE Healthcare), then measurements were repeated using concentrations above and below the KD obtained in the first round to generate better curves for fitting the data accurately. Contact and dissociation times varied across the different compounds tested, but in […]
# dissociated from the surface in less than sixty seconds.
# Data analysis was performed using the steady state responses of the double-referenced sensorgrams (raw data subtracted from blank and reference surface injections) obtained for each concentration tested. These responses were plotted against the respective concentrations and the data fitted to a 1: 1 binding model u sing the Biacore T200 evaluation software and the following equation: […]
# Where Req is the steady-state response at a given concentration C. Deviations in Req were corrected by adding an ‘offset’ term to the equation. KD is the dissociation constant to be determined and RMAX is the maximum response expected for a given compound according to the equation below:
# Where n is the stoichiometry of the interaction ( in this case, n = 1) and RProtein is the immobilization level of protein. MWCompound and MWProtein are the molecular weights of compound and protein, respectively. Sensorgrams and fitting parameters for all spy molecules can be found in section 7.
# [2] = target: T2, VHL (VBC complex), Hyp site (Homo sapiens, UniProt P40337); test: 19F NMR competition experiment, displacement of spy molecule 19; type: binding; details: 19 at 50 μM, VHL at 1.0 μM
# T2 construct: equimolar complex of pVHL54-213, eloB1-104 and; made in house; host or cells: E. coli
# Protocol: Lastly, the utility and scope of using spy molecule 19 to quantify binding of competitors across a wide range of affinities was evaluated (Fig. 5). Five compounds were titrated against 19 at 50 μM and VHL at 1.0 μM. In all cases the displacement of the spy molecule was concentration-dependent and the Ki (inhibition constant) values were derived from the respective IC50 using a competitive binding model.[12] The measured binding affinities compared remarkably well with the respective values obtained by SPR across 4-log units. The same experiment was attempted with spy molecules 6 and 11 under the same conditions, and in these cases, the assay could not differentiate the binders as efficiently (ESI, ^† Fig. S2–S4), since this would require higher protein concentration.
# 6. Competition experiments by 19F NMR
# As full measurements of R2 would be very time consuming, the competition experiments were performed using a single 19F CPMG experiment (decoupled) per sample with a fixed CPMG delay. To determine the best CPMG delay for a given spy molecule and assay condition, the procedure described in Figure S5 was developed based on the transverse relaxation rate equations.[7] By knowing the relaxation rates of the spy molecule free in solution and in presence of protein, the CPMG delay where the difference between the NMR peaks is maximum is hereon referred as dmax. The dmax for all the conditions tested for each spy molecule can be found in section 8, together with the respective values of R2 and C2.
# Method for selecting the best CPMG delay for competition experiments. With the transverse relaxation rates of the spy molecule free in solution (R2F, resulting in the blue plot) and bound to protein (R2B, resulting in the red plot), the difference between the two curves is described by I(t)D (cyan curve). To obtain dmax, the delay where the difference curve reaches its maximum, the first derivative of I(t)D was obtained and equalled to 0, subsequently isolating t (CPMG filter). […]
# [3] = SPR steady-state fit, supplement section 7, read-out: KD (Biacore T200 fit)
# [4] = SPR, 20 °C, steady-state 1:1 fit, footnote b values fitted because RMAX was not reached experimentally, read-out: K D, SPR
SMILES,"Kd [1, 3] [µM]","Kd [1, 4] [µM]",Displacement of spy molecule 19 [2],binding kinetics / dissociation rates by SPR ([1]; SPR)
CC(C)(C)CC(=O)N1C[C@H](O)C[C@H]1C(=O)NCc1ccc(Br)c(C(F)(F)F)c1 [Compound 3],407,407 ± 5,concentration dependent,
CC(=O)N1C[C@H](O)C[C@H]1C(=O)NCc1ccc(Br)cc1C(F)(F)F [Compound 10],,1350 ± 94,concentration dependent,
CC(=O)NC(C(=O)N1CC(O)CC1C(=O)NCc1ccc(Br)cc1C(F)(F)F)C(C)(C)C (centres unmarked) [Compound 12],1.14,1.14 ± 0.12,concentration dependent,too high to be determined accurately
O=C(NCc1ccc(Br)cc1)C1CC(O)CN1C(=O)CC(F)(F)F (centres unmarked) [Compound 19],145,145 ± 29,,
